The record followed here is patent publication EP0574185B1, “PGE1 analogs” (NEWPHARMA INTERNATIONAL CORPORATION, priority 1992, dated 1993).

The subject of assay [1] is rat uterus under diestrous condition. Kind of assay: C2: effect on PGF2α induced in vitro contraction of rat uterus under diestrous condition. The following applies: B-407 1x10^-8 M; PGF2α 10^-9M; nutrient solution 1,04; p < 0.02. Here is the method:
Then, a known concentration of the test prostaglandin was added and no washing was carried out during the following 15 minutes. PGF2α (10^-8 M) was added, washing once after 2 minutes and then twice over a total time period of 15 minutes. The result was expressed as the relationship between the effect of PGF2α after the treatment with B-407 and the sum of the effect of PGF2α (mean of the three initial additions) and the effect of B-407 "per se". The recordings of the contractions and their quantitation were performed as described in (A).
The experimental conditions were identical to those described in B2 and the working protocol was similar to that of C1 but the PGF2α concentration was of 10^-9M. The recordings of the contractions and their quantitation were performed as described in (A).
* p < 0.05: Tested vs. nutrient solution by ANOVA and Scheffe. ** p < 0.02: Tested vs. nutrient solution by Student's-t-test. Ratio = Effect of PGF2α after B-407/(Effect of PG F2α before B-407 + Effect of B-407). […]
The frequency and magnitude of the responses were globally evaluated by calculating the total area recorded at a fixed time period as will be further explained. […]
The calibration was made by weighing a piece of paper which corresponded to a tension of 1 g at the working sensitivity along 2 minutes. […] The results were expressed as the mean ± the standard error of the areas obtained. […]

Assay [2] deals with guinea pig isolated trachea. As to the kind of experiment: Relaxation of histamine contracted guinea pig tracheal chain in vitro. Also on record: species or system guinea pigs. To be noted: 10^-5 M; percentage on the histamine (1x10^-6 M) induced contraction; n = 8; vehicle -7 ± 3. On the procedure:
The effect of B-407 on isolated trachea was evaluated in guinea pigs weighing 700 g. The animals were killed and the trachea was dissected out, transferred to a dish containing Krebs solution and cut transversely between the segments of cartilage, so as to give a number of rings of tracheal muscle. Five rings were tied up together with cotton threads, so as to form a chain, which was then mounted in a 10 ml bath with Krebs solution at 37°C, aerated with a mixture of oxygen (95 %) and carbon dioxide (5 %). The load on the lever was 0.4 g. The organ was left to stabilize for 15 to 30 min.
Enough quantity (100 µl) of 0.1 mM histamine solution was added to the bath (1x10^-6 M) in order to obtain a contraction of 0.2 g to 0.5 g of tension. After the contraction reached a plateau, 100 µl of ethanol: distilled water (1:1) (vehicle as control) was added to the bath. Eight minutes later, the preparation was relaxed by washing 4 to 6 times. […]
The relaxation induced by B-407 was expressed as a percentage on the histamine induced contraction. The average ± standard error of all the determinations were calculated ["The guinea-pig tracheal chain"; "Pharmacological Experiments on Isolated Preparations". […]

As to `CCCCC(C)(O)C/C=C/[C@H]1[C@H](O)CC(=O)[C@@H]1CCCC/C=C/C(=O)OC` (mixture of isomers) [B-407, trans-Δ^2-15-deoxy-16-hydroxy-16-methyl PGE1 methyl ester], the “Ratio = Effect of PGF2α after B-407/(Effect of PG F2α before B-407 + Effect of B-407)” value in assay [1] was 2,35. Besides, the “% of relaxation” value in assay [2] was found to be 35 ± 5%.
